Results as given in publication PMC6150226, “Inhibition of Human Kallikrein 5 Protease by Triterpenoids from Natural Sources” (Molecules : A Journal of Synthetic Chemistry and Natural …, 2017).
Where two headings read alike, the source gives them in different places.

Tests used:
[1] = biological target: T1, recombinant human KLK5 (Homo sapiens, UniProt Q9Y337); experiment: KLK5 enzymatic assay (Boc-V-P-R-AMC fluorogenic substrate); assay type: biochemical
T1 construct: purchased R & D Systems Inc
T1 sequence (Q9Y337 23-293): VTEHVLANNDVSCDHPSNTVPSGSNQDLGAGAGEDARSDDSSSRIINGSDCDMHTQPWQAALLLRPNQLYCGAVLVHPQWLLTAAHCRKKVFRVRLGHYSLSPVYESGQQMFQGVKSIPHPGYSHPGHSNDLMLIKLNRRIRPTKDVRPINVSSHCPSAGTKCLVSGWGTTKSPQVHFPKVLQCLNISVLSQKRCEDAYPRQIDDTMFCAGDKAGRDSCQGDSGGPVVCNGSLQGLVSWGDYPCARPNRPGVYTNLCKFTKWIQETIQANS

[2] = Plasma pharmacokinetics of triterpenoids in rats after oral Jumihaidokuto (LC-MS/MS); assay type: in vivo; conditions: rat; for Cmax: male, Sprague-Dawley, plasma
Method: Male Sprague–Dawley rats were purchased from Charles River Laboratories (Yokohama, Japan). The plasma pharmacokinetic study was performed according to the “Guidelines for the Care and Use of Laboratory Animals” of Tsumura & Co. Ethical approval for experimental procedures was obtained from the Laboratory Animal Committee of Tsumura & Co. Jumihaidokuto (JHT, Lot No. 332031900) was supplied by Tsumura & Co. (Tokyo, Japan) in the form of a powdered extract. JHT prepared in distilled water was orally administered to 16-h fasted rats at 2 g/10 mL/kg (n = 3). […] Plasma was obtained by centrifugation at 1700 g for 15 min at 4 °C and stored at −80 °C until further processing. […] Twenty-five microliters of methanol, an equal volume of atropine (2 ng/mL; Wako Pure Chemical Industries) as internal standard, and 750 µL of methanol were added to 200 µL of plasma samples, followed by mixing and centrifugation (7000× g, 5 min). For the preparation of the calibration curve, the same volumes of various concentrations of working solution were used instead of methanol. The supernatant was dried at 40 °C under a stream of nitrogen gas. The dried residue was dissolved in 50–60 μL of the initial mobile phase used for liquid chromatography–mass spectrometry with a tandem mass spectrometry system (LC-MS/MS; API4000 or Triple Quad 6500; AB Sciex, Tokyo, Japan) and then a 10- or 20-μL portion was injected into the LC-MS/MS system for the quantification of triterpenoids.

[3] = system: LL-37 production in normal human epidermal keratinocytes (NHEKs); assay type: cell-based
[4] = biological target: T2, recombinant human pro-chymotrypsin C activated by trypsin (Chymotrypsin C) (Homo sapiens, UniProt Q99895); experiment: Chymotrypsin C enzymatic assay (Suc-A-A-P-F-AMC); assay type: biochemical; conditions: for IC50: 0.78-100 μM, linear interpolation
T2 construct: purchased R & D Systems Inc
Method: KLK5, KLK7, trypsin, and chymotrypsin C activities were evaluated according to the following methods supplied by R & D Systems Inc. (Minneapolis, MN, USA). The enzyme activity-dependent increase in the relative fluorescent unit (RFU) was measured, and the percentage of inhibition was calculated based on the formula: (1 − (A − B)/(C − B)) × 100, where A = RFU of test samples with enzymes, B = basal RFU without enzymes, and C = RFU of vehicle controls with enzymes. […] Activated chymotrypsin C (final 34.7 nM) was preincubated with test samples for 5 min, followed by the addition of peptide substrate. After incubating for 60 min, RFU was measured at Ex 380 nm/Em 460 nm.

[5] = system: NHEKs; experiment: Cell growth test (XTT-based cell viability assay); parameters: species or system human; conditions: ursolic acid 0.5 and 5 μM, tumulosic acid 1 and 10 μM; 24 h; with or without 10 μM cycloheximide
[6] = system: recombinant human trypsin; experiment: Trypsin enzymatic assay (Boc-V-P-R-AMC); assay type: biochemical; conditions: for IC50: 0.78-100 μM, linear interpolation
Method: KLK5, KLK7, trypsin, and chymotrypsin C activities were evaluated according to the following methods supplied by R & D Systems Inc. (Minneapolis, MN, USA). The enzyme activity-dependent increase in the relative fluorescent unit (RFU) was measured, and the percentage of inhibition was calculated based on the formula: (1 − (A − B)/(C − B)) × 100, where A = RFU of test samples with enzymes, B = basal RFU without enzymes, and C = RFU of vehicle controls with enzymes.
To measure the trypsin activity, enzymatic reaction was performed at room temperature in 100 mM NaH2PO4 buffer (pH 8.0) containing 0.25 μg/mL recombinant human trypsin (Wako Pure Chemical Industries), 100 μM of Boc-V-P-R-AMC Fluorogenic Peptide Substrate, and 1.1% DMSO at final concentrations. […] was preincubated with test samples for 5 min, followed by the addition of peptide substrate. After incubating for 1 min, RFU was measured at Ex 380 nm/Em 460 nm. Leupeptin hemisulfate (42.1 μM) was used as a positive control.

[7] = biological target: T3, recombinant human pro-KLK7 activated by thermolysin (Kallikrein 7) (Homo sapiens, UniProt P49862); experiment: KLK7 enzymatic assay (fluorogenic peptide substrate II); assay type: biochemical
T3 construct: purchased R & D Systems Inc

[8] = 10 μM test compound, KLK5 8.1 nM, substrate 100 μM, mean ± SEM of triplicate
[9] = 10 μM test compound, KLK5 8.1 nM, substrate 100 μM, mean ± SEM of triplicate, read-out: Anti-KLK5 Activity % Inhibition
[10] = dose-response experiment of Figure 2, read-out: IC50 anti-KLK5 activity
[11] = 2 g/kg, single oral Jumihaidokuto 2 g/10 mL/kg
[12] = single oral Jumihaidokuto 2 g/10 mL/kg

T2 sequence (Q99895 30-268, other chains not shown): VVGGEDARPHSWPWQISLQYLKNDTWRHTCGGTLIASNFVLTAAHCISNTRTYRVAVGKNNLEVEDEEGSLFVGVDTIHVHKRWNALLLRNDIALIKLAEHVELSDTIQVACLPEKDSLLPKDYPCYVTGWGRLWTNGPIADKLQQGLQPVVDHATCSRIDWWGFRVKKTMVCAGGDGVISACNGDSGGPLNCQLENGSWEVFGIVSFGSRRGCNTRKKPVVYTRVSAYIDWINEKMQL
T3 sequence (P49862 30-253): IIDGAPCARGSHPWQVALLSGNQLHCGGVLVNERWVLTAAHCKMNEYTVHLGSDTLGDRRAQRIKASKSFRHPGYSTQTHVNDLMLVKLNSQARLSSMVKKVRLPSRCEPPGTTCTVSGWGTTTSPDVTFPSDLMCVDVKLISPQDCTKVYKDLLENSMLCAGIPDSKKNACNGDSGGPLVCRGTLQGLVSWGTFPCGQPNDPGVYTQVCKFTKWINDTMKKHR

CC1(C(=O)O)CCC2(C)CCC3(C)C(=CC(=O)C4C5(C)CCC(O)C(C)(C)C5CCC43C)C2C1 (stereo not drawn) [18β-Glycyrrhetinic acid]
inhibition at 30 µM ([1]; 30 μM, KLK5 8.1 nM, substrate 100 μM, mean ± SEM of triplicate, read-out: Anti-KLK5 Activity % Inhibition): 16 ± 1.2%

C=C(C)[C@@H]1CC[C@]2(C(=O)O)CC[C@]3(C)[C@H](CC[C@@H]4[C@@]5(C)CC[C@H](O)C(C)(C)[C@@H]5CC[C@]43C)[C@@H]12 [Betulinic acid]
Anti-KLK5 Activity % Inhibition [1, 8]: did not influence the KLK5 activity
inhibition at 10 µM [1, 9]: 5.5 ± 2.5%

C=C(CC[C@@H](C(=O)O)C1[C@H](O)C[C@@]2(C)C3=CCC4C(C)(CCC(OC(C)=O)C4(C)C)C3=CCC12C)C(C)C (stereo partly drawn) [Dehydropachymic acid]
inhibition at 10 µM [1, 9]: 33.9 ± 3.7%

C=C(CC[C@@H](C(=O)O)[C@H]1[C@H](O)C[C@@]2(C)C3=CC[C@H]4C(C)(C)[C@@H](O)CC[C@]4(C)C3=CC[C@]12C)C(C)C [Dehydrotumulosic acid]
inhibition at 10 µM [1, 9]: -46.2 ± 2.7%

C[C@@H]1C[C@H]2[C@@H]3CCC4=CC(=O)C=C[C@]4(C)[C@@]3(F)[C@@H](O)C[C@]2(C)[C@@]1(O)C(=O)CO [Dexamethasone, reference compound]
Anti-KLK5 Activity % Inhibition [1, 8]: did not influence the KLK5 activity
inhibition at 10 µM [1, 9]: -1.8 ± 2.8%

C=C(CC[C@@H](C(=O)O)[C@H]1CC[C@@]2(C)C3=C(CC[C@]12C)[C@@]1(C)CC[C@H](O)C(C)(C)[C@@H]1CC3)C(C)C [Eburicoic acid]
inhibition at 10 µM [1, 9]: -51 ± 3%

CC(=O)N[C@@H](CC(C)C)C(=O)N[C@@H](CC(C)C)C(=O)N[C@H](C=O)CCCN=C(N)N.CC(=O)N[C@@H](CC(C)C)C(=O)N[C@@H](CC(C)C)C(=O)N[C@H](C=O)CCCN=C(N)N.O=S(=O)(O)O [Leupeptin hemisulfate, reference compound]
Anti-KLK5 Activity % Inhibition ([1]; 42.1 μM (positive control), KLK5 8.1 nM, mean ± SEM of triplicate): 96.9 ± 0.1%
Anti-KLK5 Activity % Inhibition ([1]; 42.1 μM (positive control), KLK5 8.1 nM, mean ± SEM of triplicate, listed as leupeptin hemisulfate): completely inhibited

CC1(C)CC[C@]2(C(=O)O)CC[C@]3(C)C(=CC[C@@H]4[C@@]5(C)CC[C@H](O)C(C)(C)[C@@H]5CC[C@]43C)[C@@H]2C1 [Oleanolic acid]
IC50 [1, 10]: 6.4 µM

C=C(CC[C@@H](C(=O)O)[C@H]1[C@H](O)C[C@@]2(C)C3=C(CC[C@]12C)[C@@]1(C)CC[C@H](OC(C)=O)C(C)(C)[C@@H]1CC3)C(C)C [Pachymic acid]
Cmax [2, 11]: 2.1 ng/mL
time of Cmax [2, 12]: 6 h
inhibition at 10 µM [1, 9]: 56.2 ± 1.5%
IC50 [1, 10]: 5.9 µM

CC1(C)CCC2(C(=O)O)C(C1)C1=CCC3C4(C)CC(O)C(O)C(CO)(CO)C4CCC3(C)[C@]1(C)C[C@H]2O (stereo partly drawn) [Platycodigenin]
inhibition at 10 µM [1, 9]: 8.8 ± 2%

C[C@@H]1O[C@@H](O[C@H]2[C@H](OC(=O)[C@]34CCC(C)(C)C[C@H]3C3=CC[C@@H]5[C@@]6(C)C[C@H](O)[C@H](O[C@@H]7O[C@H](CO)[C@@H](O)[C@H](O)[C@H]7O)C(CO)(CO)[C@@H]6CC[C@@]5(C)[C@]3(C)C[C@H]4O)OC[C@H](O)[C@@H]2O)[C@H](O)[C@H](O)[C@H]1O[C@@H]1OC[C@@H](O)[C@H](O[C@@H]2OC[C@](O)(CO)[C@H]2O)[C@H]1O [Platycodin D]
inhibition at 10 µM [1, 9]: -6 ± 2.9%

CC1(C)CCC2(C(=O)O)C(O)CC3(C)C(=CCC4C5(C)CC(O)C(O)C(C)(CO)C5CCC43C)C2C1 (stereo not drawn) [Polygalacic acid]
Anti-KLK5 Activity % Inhibition [1, 8]: did not influence the KLK5 activity
inhibition at 10 µM [1, 9]: 5.5 ± 2.3%

CC1(C)CCC2(CO)C(=C3C=CC4C5(C)CCC(O)C(C)(CO)C5CCC4(C)C3(C)CC2O)C1 (stereo not drawn) [Saikogenin A]
Anti-KLK5 Activity % Inhibition [1, 8]: 24.3 ± 2.6%

CC1(C)CCC2(CO)C(=C3C=CC4C5(C)CCC(O)C(C)(CO)C5CCC4(C)C3(C)CC2O)C1 (stereo not drawn) [Saikogenin D]
Anti-KLK5 Activity % Inhibition [1, 8]: −1.5 ± 3.6%

C[C@H]1O[C@@H](O[C@H]2CC[C@@]3(C)[C@@H](CC[C@]4(C)[C@@H]3C=C[C@]35OC[C@@]6(CCC(C)(C)C[C@H]63)[C@@H](O)C[C@]54C)[C@]2(C)CO)[C@H](O)[C@@H](O[C@@H]2O[C@H](CO)[C@@H](O)[C@H](O)[C@H]2O)[C@H]1O [Saikosaponin a]
inhibition at 10 µM [1, 9]: 4.3 ± 0.7%

C[C@H]1O[C@@H](O[C@H]2CC[C@@]3(C)[C@@H](CC[C@]4(C)[C@@H]3C=CC3=C5CC(C)(C)CC[C@]5(CO)[C@@H](O)C[C@]34C)[C@]2(C)CO)[C@H](O)[C@@H](O[C@@H]2O[C@H](CO)[C@@H](O)[C@H](O)[C@H]2O)[C@H]1O [Saikosaponin b1]
inhibition at 10 µM [1, 9]: 39.6 ± 1.6%
IC50 [1, 10]: 14.4 µM

CC1OC(OC2CCC3(C)C(CCC4(C)C3C=CC3=C5CC(C)(C)CCC5(CO)C(O)CC34C)C2(C)CO)C(O)C(OC2OC(CO)C(O)C(O)C2O)C1O (stereo not drawn) [Saikosaponin b2]
Anti-KLK5 Activity % Inhibition [1, 8]: 21.1 ± 1.4%

CC1OC(OC2C(COC3OC(CO)C(O)C(O)C3O)OC(OC3CCC4(C)C(CCC5(C)C4C=CC46OCC7(CCC(C)(C)CC74)[C@@H](O)C[C@@]56C)C3(C)C)C(O)C2O)C(O)C(O)C1O (stereo partly drawn) [Saikosaponin c]
inhibition at 10 µM [1, 9]: 4.1 ± 1.6%

CC1OC(OC2CCC3(C)C(CCC4(C)C3C=CC35OCC6(CCC(C)(C)CC63)C(O)CC45C)C2(C)CO)C(O)C(OC2OC(CO)C(O)C(O)C2O)C1O (stereo not drawn) [Saikosaponin d]
inhibition at 10 µM [1, 9]: -10.4 ± 3.5%

C=C(CC[C@@H](C(=O)O)[C@H]1[C@H](O)C[C@@]2(C)C3=C(CC[C@]12C)[C@@]1(C)CC[C@H](O)C(C)(C)[C@@H]1CC3)C(C)C [Tumulosic acid]
amount of LL-37 in NHEK lysates [3]: decreased
Inhibition % at 100 μM, Chymotrypsin C ([4]; 100 μM): 4.1 ± 5.2%
inhibition at 100 µM ([4]; 100 μM): 4%
IC50 [4]: > 100 µM
cytotoxic effect on cell proliferation [5]: No cytotoxic effect
Cmax [2, 11]: 116 ng/mL
Cmax ([2]; single oral Jumihaidokuto 2 g/kg, converted from 116.1 ng/mL): 238 nM
time of Cmax [2, 12]: 2 h
Inhibition % at 100 μM, Trypsin [6]: 73.2 ± 1.6%
IC50 ([6]; listed as Tumulosic Acid): 45.3 µM
IC50 ([6]; listed as tumulosic acid): 10.5 µM
inhibition at 10 µM [1, 9]: 36 ± 1.9%
inhibition at 100 µM ([1]; 100 μM, read-out: Inhibition % at 100 μM, Kallikrein 5): 58.7 ± 0.2%
IC50 [1, 10]: 19.3 µM
IC50 ([1]; selectivity experiment of Table 2, 0.78-100 μM, linear interpolation, read-out: IC50 Kallikrein 5): 14.8 µM
inhibition at 100 µM [7]: 19.5 ± 1.5%
IC50 ([7]; 0.78-100 μM, linear interpolation): > 100 µM

C[C@H]1[C@H](C)CC[C@]2(C(=O)O)CC[C@]3(C)C(=CC[C@@H]4[C@@]5(C)CC[C@H](O)C(C)(C)[C@@H]5CC[C@]43C)[C@H]12 [Ursolic acid]
amount of LL-37 in NHEK lysates ([3]; ursolic acid 0.5 and 5 μM, tumulosic acid 1 and 10 μM, 23 h, in the presence of 10 μM cycloheximide): decreased
inhibition at 100 µM ([4]; 100 μM): 35.3 ± 2.9%
IC50 [4]: > 100 µM
Inhibition % at 100 μM, Trypsin [6]: 76.9 ± 3.5%
IC50 ([6]; listed as Ursolic Acid): 14.8 µM
IC50 ([6]; listed as ursolic acid): 10.5 µM
inhibition at 10 µM ([1]; read-out: Anti-KLK5 Activity % Inhibition): 54.6 ± 1.3%
